Legend:
human recombinant HDAC6 = biological target: T1, human recombinant HDAC6 (Homo sapiens, UniProt Q9UBN7); experiment: HDAC6 enzyme activity inhibition assay (in vitro, fluorimetric); format: biochemical; settings: for HDAC6 selectivity (fold): HDAC6 selectivity over HDAC1; for IC50: human recombinant HDAC6, fluorimetric kit, same protocol as HDAC1
T1 construct: purchased Calbiochem 382180
T1 sequence (Q9UBN7 1-1215): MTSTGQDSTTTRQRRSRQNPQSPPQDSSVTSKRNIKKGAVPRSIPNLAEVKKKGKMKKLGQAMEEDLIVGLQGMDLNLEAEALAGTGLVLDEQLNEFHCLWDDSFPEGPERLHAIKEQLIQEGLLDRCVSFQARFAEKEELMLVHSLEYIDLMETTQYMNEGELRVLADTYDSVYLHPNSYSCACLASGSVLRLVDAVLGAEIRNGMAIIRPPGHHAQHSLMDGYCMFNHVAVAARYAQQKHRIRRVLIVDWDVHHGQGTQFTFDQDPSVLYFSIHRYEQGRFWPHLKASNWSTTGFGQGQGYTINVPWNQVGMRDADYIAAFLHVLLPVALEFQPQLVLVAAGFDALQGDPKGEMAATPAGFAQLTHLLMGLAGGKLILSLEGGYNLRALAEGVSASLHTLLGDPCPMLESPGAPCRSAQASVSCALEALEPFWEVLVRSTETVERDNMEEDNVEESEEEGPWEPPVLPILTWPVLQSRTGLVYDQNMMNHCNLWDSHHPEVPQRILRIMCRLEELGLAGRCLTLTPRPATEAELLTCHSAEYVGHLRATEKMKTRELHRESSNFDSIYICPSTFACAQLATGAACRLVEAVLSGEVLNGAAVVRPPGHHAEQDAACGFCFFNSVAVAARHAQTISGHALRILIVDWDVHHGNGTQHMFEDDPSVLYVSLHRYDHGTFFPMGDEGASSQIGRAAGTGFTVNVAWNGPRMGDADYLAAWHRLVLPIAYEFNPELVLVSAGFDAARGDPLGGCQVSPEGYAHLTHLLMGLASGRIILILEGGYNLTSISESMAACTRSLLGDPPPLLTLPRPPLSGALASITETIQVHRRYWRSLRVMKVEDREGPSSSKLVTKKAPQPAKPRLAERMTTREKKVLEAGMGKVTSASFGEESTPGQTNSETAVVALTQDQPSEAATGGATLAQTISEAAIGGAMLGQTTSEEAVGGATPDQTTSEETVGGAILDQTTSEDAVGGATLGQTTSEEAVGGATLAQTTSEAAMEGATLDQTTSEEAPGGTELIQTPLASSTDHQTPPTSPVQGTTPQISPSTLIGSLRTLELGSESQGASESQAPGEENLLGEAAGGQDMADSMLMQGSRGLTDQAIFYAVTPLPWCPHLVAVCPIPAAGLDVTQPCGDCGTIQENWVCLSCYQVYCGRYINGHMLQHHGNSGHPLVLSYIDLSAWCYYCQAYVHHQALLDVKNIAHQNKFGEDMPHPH
How it was run: (§1)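 Human recombinant enzyme (0.3 μg for HDAC1) reacted with 10 μM Fluor de Lys-SIRT1 substrate and 5-fold compound dilutions at 30 °C for 60 min, then developer for 30 min. Fluorescence read at Ex 360/Em 460; IC50 calculated. HDAC6 run by the same protocol.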

human recombinant HDAC1 = biological target: T2, human recombinant HDAC1 (Homo sapiens, UniProt Q13547); experiment: HDAC1 enzyme activity inhibition assay (in vitro, fluorimetric); format: biochemical; settings: human recombinant HDAC1, fluorimetric kit, 30° C. 60 minutes
T2 construct: purchased Enzo Life Science BML-SE456
T2 sequence (Q13547 whole entry): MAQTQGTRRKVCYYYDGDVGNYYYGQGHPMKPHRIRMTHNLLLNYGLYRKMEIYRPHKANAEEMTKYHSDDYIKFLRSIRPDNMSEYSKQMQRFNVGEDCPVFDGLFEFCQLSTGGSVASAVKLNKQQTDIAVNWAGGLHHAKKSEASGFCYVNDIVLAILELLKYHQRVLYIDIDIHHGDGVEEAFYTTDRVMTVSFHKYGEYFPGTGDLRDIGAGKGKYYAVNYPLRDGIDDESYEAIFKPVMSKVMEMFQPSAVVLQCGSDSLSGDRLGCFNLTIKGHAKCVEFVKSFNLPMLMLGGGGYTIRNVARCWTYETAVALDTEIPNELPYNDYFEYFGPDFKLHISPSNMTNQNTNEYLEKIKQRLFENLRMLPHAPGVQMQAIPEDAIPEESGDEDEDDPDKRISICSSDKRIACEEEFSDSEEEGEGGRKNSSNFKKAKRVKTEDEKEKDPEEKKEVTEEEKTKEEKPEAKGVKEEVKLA
How it was run: as §1

C[C@@H]1CN(Cc2ccc(C(=O)NO)cc2)C[C@H](C)N1C(=O)Oc1ccccc1 [Compound 177, phenyl(2S,6R)-4-(4-(hydroxycarbamoyl)benzyl)-2,6-dimethylpiperazine-1-carboxylate]
HDAC6 selectivity (fold) (human recombinant HDAC6): 186 fold | IC50 (human recombinant HDAC6): 31 nM | IC50 (human recombinant HDAC1): 5800 nM

C[C@@H]1CN(CCc2ccccc2)C[C@H](C)N1Cc1ccc(C(=O)NO)cc1 [Compound 183, 4-(((2S,6R)-2,6-dimethyl-4-phenethylpiperazin-1-yl)methyl)-N-hydroxybenzamide]
HDAC6 selectivity (fold) (human recombinant HDAC6): >20 fold | IC50 (human recombinant HDAC6): 500 nM | IC50 (human recombinant HDAC1): > 10000 nM

C[C@@H]1CN(C(=O)Nc2ccc3c(ccn3C)c2)C[C@H](C)N1Cc1ccc(C(=O)NO)cc1 [Compound 185, (3R,5S)-4-(4-(hydroxycarbamoyl)benzyl)-3,5-dimethyl-N-(1-methyl-1 H -indol-5-yl)piperazine-1-carboxamide]
HDAC6 selectivity (fold) (human recombinant HDAC6): 3 fold | IC50 (human recombinant HDAC6): 249 nM | IC50 (human recombinant HDAC1): 800 nM

C[C@@H]1CN(C(=O)Nc2cccc(-n3cccc3)c2)C[C@H](C)N1Cc1ccc(C(=O)NO)cc1 [Compound 186, (3R,5S)-N-(3-(1 H-pyrrol-1-yl)phenyl)-4-(4-(hydroxycarbamoyl)benzyl)-3,5-dimethylpiperazine-1-carboxamide]
HDAC6 selectivity (fold) (human recombinant HDAC6): 65 fold | IC50 (human recombinant HDAC6): 5 nM | IC50 (human recombinant HDAC1): 300 nM

C[C@@H]1CN(C(=O)Nc2ccc3c(c2)CCO3)C[C@H](C)N1Cc1ccc(C(=O)NO)cc1 [Compound 187, (3R,5S)-N-(2,3-dihydrobenzofuran-5-yl)-4-(4-(hydroxycarbamoyl)benzyl)-3,5-dimethylpiperazine-1-carboxamide]
HDAC6 selectivity (fold) (human recombinant HDAC6): 5 fold | IC50 (human recombinant HDAC6): 239 nM | IC50 (human recombinant HDAC1): 1100 nM

C[C@@H]1CN(Cc2ccc(C(=O)NO)cc2)C[C@H](C)N1C(=O)CCc1ccccc1 [Compound 188, 4-(((3R,5S)-3,5-dimethyl-4-(3-phenylpropanoyl)piperazin-1-yl)methyl)-N-hydroxybenzamide]
HDAC6 selectivity (fold) (human recombinant HDAC6): 71 fold | IC50 (human recombinant HDAC6): 191 nM | IC50 (human recombinant HDAC1): 13600 nM

Cc1cccc(NC(=S)N2C[C@@H](C)N(Cc3ccc(C(=O)NO)cc3)[C@@H](C)C2)c1 [Compound 189, 4-(((2S,6R)-2,6-dimethyl-4-(m-tolylcarbamothioyl)piperazin-1-yl)methyl)-N-hydroxybenzamide]
HDAC6 selectivity (fold) (human recombinant HDAC6): 10 fold | IC50 (human recombinant HDAC6): 303 nM | IC50 (human recombinant HDAC1): 3000 nM

C[C@@H]1CN(CC(C)(C)F)C[C@H](C)N1Cc1ccc(C(=O)NO)cc1 [Compound 193, 4-(((2S,6R)-4-(2-fluoro-2-methylpropyl)-2,6-dimethylpiperazin-1-yl)methyl)-N-hydroxybenzamide]
HDAC6 selectivity (fold) (human recombinant HDAC6): 60 fold | IC50 (human recombinant HDAC6): 271 nM | IC50 (human recombinant HDAC1): 16300 nM

C[C@@H]1CN(Cc2ccc(C(=O)NO)cn2)C[C@H](C)N1Cc1ccccc1 [Compound 194, 6-(((3R,5S)-4-benzyl-3,5-dimethylpiperazin-1-yl)methyl)-N-hydroxynicotinamide]
HDAC6 selectivity (fold) (human recombinant HDAC6): 303 fold | IC50 (human recombinant HDAC6): 82 nM | IC50 (human recombinant HDAC1): 24800 nM

C[C@@H]1CN(Cc2ccccc2)C[C@H](C)N1Cc1ccc(C(=O)NO)cn1 [Compound 195, 6-(((2S,6R)-4-benzyl-2,6-dimethylpiperazin-1-yl)methyl)-N-hydroxynicotinamide]
HDAC6 selectivity (fold) (human recombinant HDAC6): 55 fold | IC50 (human recombinant HDAC6): 410 nM | IC50 (human recombinant HDAC1): 22400 nM

C[C@@H]1CN(C(=O)N(C)c2ccccc2)C[C@H](C)N1Cc1ccc(C(=O)NO)cc1 [Compound 196, (3R,5S)-4-(4-(hydroxycarbamoyl)benzyl)-N,3,5-trimethyl-N-phenylpiperazine-1-carboxamide]
HDAC6 selectivity (fold) (human recombinant HDAC6): 97 fold | IC50 (human recombinant HDAC6): 148 nM | IC50 (human recombinant HDAC1): 14400 nM

C[C@@H]1CN(C(=O)N2CCc3ccccc32)C[C@H](C)N1Cc1ccc(C(=O)NO)cc1 [Compound 197, N-hydroxy-4-(((2S,6R)-4-(indoline-1-carbonyl)-2,6-dimethylpiperazin-1-yl)methyl)benzamide]
HDAC6 selectivity (fold) (human recombinant HDAC6): 12 fold | IC50 (human recombinant HDAC6): 177 nM | IC50 (human recombinant HDAC1): 2100 nM

CCCCN(C(=O)N1C[C@@H](C)N(Cc2ccc(C(=O)NO)cc2)[C@@H](C)C1)c1ccccc1 [Compound 198, (3R,5S)-N-butyl-4-(4-(hydroxycarbamoyl)benzyl)-3,5-dimethyl-N-phenylpiperazine-1-carboxamide]
HDAC6 selectivity (fold) (human recombinant HDAC6): 51 fold | IC50 (human recombinant HDAC6): 241 nM | IC50 (human recombinant HDAC1): 12200 nM

C[C@@H]1CN(Cc2ccc(C(=O)NO)cc2)C[C@H](C)N1CCCC(F)(F)F [Compound 204, 4-(((3R,5S)-3,5-dimethyl-4-(4,4,4-trifluorobutyl)piperazin-1-yl)methyl)-N-hydroxybenzamide]
HDAC6 selectivity (fold) (human recombinant HDAC6): >12 fold | IC50 (human recombinant HDAC6): 807 nM | IC50 (human recombinant HDAC1): > 10000 nM

C[C@@H]1CN(Cc2ccc(C(=O)NO)cc2)C[C@H](C)N1Cc1ccccc1F [Compound 211, 4-(((3R,5S)-4-(2-fluorobenzyl)-3,5-dimethylpiperazin-1-yl)methyl)-N-hydroxybenzamide]
HDAC6 selectivity (fold) (human recombinant HDAC6): >154 fold | IC50 (human recombinant HDAC6): 65 nM | IC50 (human recombinant HDAC1): > 10000 nM

C[C@@H]1CN(Cc2ccc(C(=O)NO)cc2)C[C@H](C)N1Cc1cc(F)ccc1F [Compound 212, 4-(((3R,5S)-4-(2,5-difluorobenzyl)-3,5-dimethylpiperazin-1-yl)methyl)-N-hydroxybenzamide]
HDAC6 selectivity (fold) (human recombinant HDAC6): >28 fold | IC50 (human recombinant HDAC6): 358 nM | IC50 (human recombinant HDAC1): > 10000 nM

C[C@@H]1CN(Cc2ccc(C(=O)NO)cc2)C[C@H](C)N1Cc1cc(F)c(F)cc1F [Compound 213, 4-(((3R,5S)-3,5-dimethyl-4-(2,4,5-trifluorobenzyl)piperazin-1-yl)methyl)-N-hydroxybenzamide]
HDAC6 selectivity (fold) (human recombinant HDAC6): >29 fold | IC50 (human recombinant HDAC6): 349 nM | IC50 (human recombinant HDAC1): > 10000 nM

C[C@@H]1CN(Cc2ccc(C(=O)NO)cc2)C[C@H](C)N1Cc1cc(C(F)(F)F)cc(C(F)(F)F)c1 [Compound 214, 4-(((3R,5S)-4-(3,5-bis(trifluoromethyl)benzyl)-3,5-dimethylpiperazin-1-yl)methyl)-N-hydroxybenzamide]
HDAC6 selectivity (fold) (human recombinant HDAC6): >61 fold | IC50 (human recombinant HDAC6): 165 nM | IC50 (human recombinant HDAC1): > 10000 nM

C[C@@H]1CN(Cc2cc(F)c(F)cc2F)C[C@H](C)N1Cc1ccc(C(=O)NO)cc1 [Compound 215, 4-(((2S,6R)-2,6-dimethyl-4-(2,4,5-trifluorobenzyl)piperazin-1-yl)methyl)-N-hydroxybenzamide]
HDAC6 selectivity (fold) (human recombinant HDAC6): 2 fold | IC50 (human recombinant HDAC6): 523 nM | IC50 (human recombinant HDAC1): > 10000 nM

C[C@@H]1CN(CCc2ccc(C(=O)NO)cc2)C[C@H](C)N1Cc1ccccc1 [Compound 218, 4-(2-((3R,5S)-4-benzyl-3,5-dimethylpiperazin-1-yl)ethyl)-N-hydroxybenzamide]
HDAC6 selectivity (fold) (human recombinant HDAC6): 15 fold | IC50 (human recombinant HDAC6): 749 nM | IC50 (human recombinant HDAC1): 11100 nM

CC(c1ccc(C(=O)NO)cc1)N1C[C@@H](C)N(Cc2ccccc2)[C@@H](C)C1 (stereo partly drawn) [Compound 219, 4-(1-((3R,5S)-4-benzyl-3,5-dimethylpiperazin-1-yl)ethyl)-N-hydroxybenzamide]
HDAC6 selectivity (fold) (human recombinant HDAC6): >59 fold | IC50 (human recombinant HDAC6): 170 nM | IC50 (human recombinant HDAC1): > 10000 nM

CC(c1ccccc1)N1C[C@@H](C)N(Cc2ccc(C(=O)NO)cc2)[C@@H](C)C1 (stereo partly drawn) [Compound 220, 4-(((2S,6R)-2,6-dimethyl-4-(1-phenylethyl)piperazin-1-yl)methyl)-N-hydroxybenzamide]
HDAC6 selectivity (fold) (human recombinant HDAC6): 13 fold | IC50 (human recombinant HDAC6): 1230 nM | IC50 (human recombinant HDAC1): 15900 nM

C[C@@H]1CN(Cc2ccc(C(=O)NO)cc2)C[C@H](C)N1C(=O)Cc1cccc(F)c1 [Compound 222, 4-(((3R,5S)-4-(2-(3-fluorophenyl)acetyl)-3,5-dimethylpiperazin-1-yl)methyl)-N-hydroxybenzamide]
HDAC6 selectivity (fold) (human recombinant HDAC6): 16 fold | IC50 (human recombinant HDAC6): 100 nM | IC50 (human recombinant HDAC1): 1600 nM

C[C@@H]1CN(Cc2ccc(C(=O)NO)cc2)C[C@H](C)N1C(=O)Cc1cccc(C(F)(F)F)c1 [Compound 223, 4-(((3R,5S)-3,5-dimethyl-4-(2-(3-(trifluoromethyl)phenyl)acetyl)piperazin-1-yl)methyl)-N-hydroxybenzamide]
HDAC6 selectivity (fold) (human recombinant HDAC6): 8 fold | IC50 (human recombinant HDAC6): 118 nM | IC50 (human recombinant HDAC1): 900 nM

— patent US10287255B2, “Compounds as histone deacetylase 6 inhibitors and pharmaceutical compositions comprising the same” (CHONG KUN DANG PHARMACEUTICAL CORP., priority 2014, dated 2019)
